Test results: patent US20120029187A1, “HALOALKYLSULFONANILIDE DERIVATIVE” (Nissan Chemical Industries, Ltd., priority 2009, published 2012)

Assays:
Assay type in all cases: in vivo
[1] = test system: transplanted rice; test: Test Example 1: preemergence treatment under submerged conditions, effect on crop; settings: dose 2.52 g/a
Procedure, shortened: (§1)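 Flooded-paddy preemergence assay; EC diluted with water, surface-applied at weed seeding; doses g/a; rice transplanted at 2.5 leaves; 0–5 mortality score after 3 weeks.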

[2] = test system: common ragweed; test: Test Example 3: herbicidal effects in soil treatment; settings: dose 3.2 g/a
Procedure, shortened: (§2)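 Seeds were sown in sterilized diluvial soil and covered with about 1.5 cm of soil. Compounds, formulated as emulsifiable concentrates and diluted with water, were sprayed evenly over the soil surface at set doses in g/a. Herbicidal effect was scored on a rating scale three weeks later.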

[3] = test system: water foxtail; test: as above; settings: dose 3.2 g/a
Procedure, shortened: as §2

[4] = test system: barnyardgrass; test: as above; settings: dose 3.2 g/a
Procedure, shortened: as §2

[5] = test system: giant foxtail; test: as above; settings: dose 3.2 g/a
Procedure, shortened: as §2

[6] = test system: common lambsquater; test: as above; settings: dose 3.2 g/a
Procedure, shortened: as §2

[7] = test system: common chickweed; test: as above; settings: dose 3.2 g/a
Procedure, shortened: as §2

[8] = test system: beadstraw; test: as above; settings: dose 3.2 g/a
Procedure, shortened: as §2

[9] = test system: Italian ryegrass; test: as above; settings: dose 3.2 g/a
Procedure, shortened: as §2

[10] = test system: wild oat; test: as above; settings: dose 3.2 g/a
Procedure, shortened: as §2

[11] = test system: large crabgrass; test: as above; settings: dose 3.2 g/a
Procedure, shortened: as §2

[12] = test system: velvetleaf; test: as above; settings: dose 3.2 g/a
Procedure, shortened: as §2

[13] = test system: redroot pigweed; test: as above; settings: dose 3.2 g/a
Procedure, shortened: as §2

[14] = test system: common ragweed; test: Test Example 4: herbicidal effect in foliage treatment; settings: dose 3.2 g/a, three weeks after application
Procedure, shortened: (§3)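 Doses are given in grams per are of applied compound, sprayed as water-diluted emulsifiable concentrate onto foliage of 14-day-old plants grown at 25 to 30° C. Herbicidal activity was assessed visually on a rating scale after three weeks.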

[15] = test system: water foxtail; test: as above; settings: dose 3.2 g/a, three weeks after application
Procedure, shortened: as §3

[16] = test system: barnyardgrass; test: as above; settings: dose 3.2 g/a, three weeks after application
Procedure, shortened: as §3

[17] = test system: giant foxtail; test: as above; settings: dose 3.2 g/a, three weeks after application
Procedure, shortened: as §3

[18] = test system: common lambsquater; test: as above; settings: dose 3.2 g/a, three weeks after application
Procedure, shortened: as §3

[19] = test system: common chickweed; test: as above; settings: dose 3.2 g/a, three weeks after application
Procedure, shortened: as §3

[20] = test system: beadstraw; test: as above; settings: dose 3.2 g/a, three weeks after application
Procedure, shortened: as §3

[21] = test system: Italian ryegrass; test: as above; settings: dose 3.2 g/a, three weeks after application
Procedure, shortened: as §3

[22] = test system: wild oat; test: as above; settings: dose 3.2 g/a, three weeks after application
Procedure, shortened: as §3

[23] = test system: large crabgrass; test: as above; settings: dose 3.2 g/a, three weeks after application
Procedure, shortened: as §3

[24] = test system: velvetleaf; test: as above; settings: dose 3.2 g/a, three weeks after application
Procedure, shortened: as §3

[25] = test system: redroot pigweed; test: as above; settings: dose 3.2 g/a, three weeks after application
Procedure, shortened: as §3

[26] = test system: posumbu knotweed; test: as above; settings: dose 3.2 g/a, three weeks after application
Procedure, shortened: as §3

[27] = test system: ducksalad; test: Test Example 2: herbicidal effects during the vegetation period under submerged conditions; settings: treatment during the vegetation period under submerged conditions; dose 2.52 g/a
Procedure, shortened: (§4)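 Barnyardgrass, bulrush and ducksalad were co-sown in alluvial soil flooded to 4 cm and grown in a greenhouse at 25 to 30° C. At the 1- or 2-leaf stage, water-diluted emulsifiable concentrates went onto the water surface at set doses (g/a). Herbicidal effect was scored three weeks later on a graded scale.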

[28] = test system: bulrush; test: as above; settings: treatment during the vegetation period under submerged conditions; dose 2.52 g/a
Procedure, shortened: as §4

[29] = test system: barnyardgrass; test: as above; settings: treatment during the vegetation period under submerged conditions; dose 2.52 g/a
Procedure, shortened: as §4

[30] = test system: ducksalad; test: Test Example 1: herbicidal effects in preemergence treatment under submerged conditions; settings: dose 2.52 g/a
Procedure, shortened: as §1

[31] = test system: bulrush; test: as above; settings: dose 2.52 g/a
Procedure, shortened: as §1

[32] = test system: barnyardgrass; test: as above; settings: dose 2.52 g/a
Procedure, shortened: as §1

Q: Which “a: transplanted rice, effect on crop (evaluation scale 0-5)” value [1] does the source give for `COC(=O)N(c1ccccc1CN1COC(C)(C)CC1=O)S(=O)(=O)C(F)(F)F` [II-22] here?
A: 0 (mortality of less than 5% (almost ineffective))

Q: And the “J: common ragweed, herbicidal effect (evaluation scale 0-5)” value [2]?
A: 3 (mortality of at least 40% and less than 70%)

Q: And the “G: water foxtail, herbicidal effect (evaluation scale 0-5)” value [3]?
A: 5 (mortality of 90% or above (nearly complete death))

Q: And the “A: barnyardgrass, herbicidal effect (evaluation scale 0-5)” value [4]?
A: 5 (mortality of 90% or above (nearly complete death))

Q: And the “E: giant foxtail, herbicidal effect (evaluation scale 0-5)” value [5]?
A: 3 (mortality of at least 40% and less than 70%)

Q: What about the “L: common lambsquater, herbicidal effect (evaluation scale 0-5)” value [6] of the same molecule?
A: 4 (mortality of at least 70% and less than 90%)

Q: And the “N: common chickweed, herbicidal effect (evaluation scale 0-5)” value [7]?
A: 4 (mortality of at least 70% and less than 90%)

Q: What about the “O: beadstraw, herbicidal effect (evaluation scale 0-5)” value [8] of the same molecule?
A: 5 (mortality of 90% or above (nearly complete death))

Q: And the “H: Italian ryegrass, herbicidal effect (evaluation scale 0-5)” value [9]?
A: 5 (mortality of 90% or above (nearly complete death))

Q: And the “F: wild oat, herbicidal effect (evaluation scale 0-5)” value [10]?
A: 0 (mortality of less than 5% (almost ineffective))

Q: And the “D: large crabgrass, herbicidal effect (evaluation scale 0-5)” value [11]?
A: 5 (mortality of 90% or above (nearly complete death))

Q: And the “I: velvetleaf, herbicidal effect (evaluation scale 0-5)” value [12]?
A: 5 (mortality of 90% or above (nearly complete death))

Q: And the “K: redroot pigweed, herbicidal effect (evaluation scale 0-5)” value [13]?
A: 0 (mortality of less than 5% (almost ineffective))

Q: And the “J: common ragweed, herbicidal effect” value [14]?
A: 4 (mortality of at least 70% and less than 90%)

Q: And the “G: water foxtail, herbicidal effect” value [15]?
A: 5 (mortality of 90% or above (nearly complete death))

Q: And the “A: barnyardgrass, herbicidal effect” value [16]?
A: 5 (mortality of 90% or above (nearly complete death))

Q: And the “E: giant foxtail, herbicidal effect” value [17]?
A: 5 (mortality of 90% or above (nearly complete death))

Q: What about the “L: common lambsquater, herbicidal effect” value [18] of the same molecule?
A: 3 (mortality of at least 40% and less than 70%)

Q: What about the “N: common chickweed, herbicidal effect” value [19] of the same molecule?
A: 3 (mortality of at least 40% and less than 70%)

Q: What about the “O: beadstraw, herbicidal effect” value [20] of the same molecule?
A: 5 (mortality of 90% or above (nearly complete death))

Q: What about the “H: Italian ryegrass, herbicidal effect” value [21] of the same molecule?
A: 4 (mortality of at least 70% and less than 90%)

Q: What about the “F: wild oat, herbicidal effect” value [22] of the same molecule?
A: 0 (mortality of less than 5% (almost ineffective))

Q: And the “D: large crabgrass, herbicidal effect” value [23]?
A: 5 (mortality of 90% or above (nearly complete death))

Q: What about the “I: velvetleaf, herbicidal effect” value [24] of the same molecule?
A: 5 (mortality of 90% or above (nearly complete death))

Q: What about the “K: redroot pigweed, herbicidal effect” value [25] of the same molecule?
A: 0 (mortality of less than 5% (almost ineffective))

Q: And the “M: posumbu knotweed, herbicidal effect” value [26]?
A: 3 (mortality of at least 40% and less than 70%)

Q: And the “C: ducksalad, herbicidal effect (evaluation scale 0-5)” value (shortened to “C: ducksalad, herbicidal effect”) [27]?
A: 5 (mortality of 90% or above (nearly complete death))

Q: What about the “B: bulrush, herbicidal effect (evaluation scale 0-5)” value (shortened to “B: bulrush, herbicidal effect”) [28] of the same molecule?
A: 5 (mortality of 90% or above (nearly complete death))

Q: And the “A: barnyardgrass, herbicidal effect (evaluation scale 0-5)” value [29]?
A: 5 (mortality of 90% or above (nearly complete death))

Q: What about the “C: ducksalad, herbicidal effect” value [30] of the same molecule?
A: 5 (mortality of 90% or above (nearly complete death))

Q: What about the “B: bulrush, herbicidal effect” value [31] of the same molecule?
A: 5 (mortality of 90% or above (nearly complete death))

Q: And the “A: barnyardgrass, herbicidal effect (evaluation scale 0-5)” value [32]?
A: 5 (mortality of 90% or above (nearly complete death))

Q: For `CCCCOC(=O)N(c1ccccc1CN1COC(C)(C)CC1=O)S(=O)(=O)C(F)(F)F` [II-25], which “a: transplanted rice, effect on crop (evaluation scale 0-5)” value [1] is on record?
A: 0 (mortality of less than 5% (almost ineffective))

Q: What about the “J: common ragweed, herbicidal effect (evaluation scale 0-5)” value [2] of the same molecule?
A: 4 (mortality of at least 70% and less than 90%)

Q: What about the “G: water foxtail, herbicidal effect (evaluation scale 0-5)” value [3] of the same molecule?
A: 5 (mortality of 90% or above (nearly complete death))

Q: And the “A: barnyardgrass, herbicidal effect (evaluation scale 0-5)” value [4]?
A: 4 (mortality of at least 70% and less than 90%)

Q: And the “E: giant foxtail, herbicidal effect (evaluation scale 0-5)” value [5]?
A: 3 (mortality of at least 40% and less than 70%)

Q: And the “L: common lambsquater, herbicidal effect (evaluation scale 0-5)” value [6]?
A: 0 (mortality of less than 5% (almost ineffective))

Q: What about the “N: common chickweed, herbicidal effect (evaluation scale 0-5)” value [7] of the same molecule?
A: 4 (mortality of at least 70% and less than 90%)

Q: And the “O: beadstraw, herbicidal effect (evaluation scale 0-5)” value [8]?
A: 5 (mortality of 90% or above (nearly complete death))

Q: And the “H: Italian ryegrass, herbicidal effect (evaluation scale 0-5)” value [9]?
A: 1 (mortality of at least 5% and less than 20%)

Q: What about the “F: wild oat, herbicidal effect (evaluation scale 0-5)” value [10] of the same molecule?
A: 0 (mortality of less than 5% (almost ineffective))

Q: And the “D: large crabgrass, herbicidal effect (evaluation scale 0-5)” value [11]?
A: 4 (mortality of at least 70% and less than 90%)

Q: What about the “I: velvetleaf, herbicidal effect (evaluation scale 0-5)” value [12] of the same molecule?
A: 5 (mortality of 90% or above (nearly complete death))

Q: And the “K: redroot pigweed, herbicidal effect (evaluation scale 0-5)” value [13]?
A: 0 (mortality of less than 5% (almost ineffective))

Q: What about the “J: common ragweed, herbicidal effect” value [14] of the same molecule?
A: 3 (mortality of at least 40% and less than 70%)

Q: What about the “G: water foxtail, herbicidal effect” value [15] of the same molecule?
A: 5 (mortality of 90% or above (nearly complete death))

Q: What about the “A: barnyardgrass, herbicidal effect” value [16] of the same molecule?
A: 5 (mortality of 90% or above (nearly complete death))

Q: And the “E: giant foxtail, herbicidal effect” value [17]?
A: 5 (mortality of 90% or above (nearly complete death))

Q: What about the “L: common lambsquater, herbicidal effect” value [18] of the same molecule?
A: 1 (mortality of at least 5% and less than 20%)

Q: And the “N: common chickweed, herbicidal effect” value [19]?
A: 4 (mortality of at least 70% and less than 90%)

Q: And the “O: beadstraw, herbicidal effect” value [20]?
A: 5 (mortality of 90% or above (nearly complete death))

Q: And the “H: Italian ryegrass, herbicidal effect” value [21]?
A: 0 (mortality of less than 5% (almost ineffective))

Q: And the “F: wild oat, herbicidal effect” value [22]?
A: 0 (mortality of less than 5% (almost ineffective))

Q: And the “D: large crabgrass, herbicidal effect” value [23]?
A: 5 (mortality of 90% or above (nearly complete death))

Q: And the “I: velvetleaf, herbicidal effect” value [24]?
A: 4 (mortality of at least 70% and less than 90%)

Q: And the “K: redroot pigweed, herbicidal effect” value [25]?
A: 0 (mortality of less than 5% (almost ineffective))

Q: And the “M: posumbu knotweed, herbicidal effect” value [26]?
A: 1 (mortality of at least 5% and less than 20%)

Q: And the “C: ducksalad, herbicidal effect” value [27]?
A: 5 (mortality of 90% or above (nearly complete death))

Q: What about the “B: bulrush, herbicidal effect” value [28] of the same molecule?
A: 5 (mortality of 90% or above (nearly complete death))

Q: What about the “A: barnyardgrass, herbicidal effect (evaluation scale 0-5)” value [29] of the same molecule?
A: 5 (mortality of 90% or above (nearly complete death))

Q: And the “C: ducksalad, herbicidal effect” value [30]?
A: 5 (mortality of 90% or above (nearly complete death))

Q: What about the “B: bulrush, herbicidal effect” value [31] of the same molecule?
A: 5 (mortality of 90% or above (nearly complete death))

Q: What about the “A: barnyardgrass, herbicidal effect (evaluation scale 0-5)” value [32] of the same molecule?
A: 5 (mortality of 90% or above (nearly complete death))
